Four compounds from ChEMBL document CHEMBL5143519, “Exploring disordered loops in DprE1 provides a functional site to combat drug-resistance in Mycobacterium strains” (Eur J Med Chem, 2022) can be followed below.

Experiment [1] deals with Mycobacterium tuberculosis variant bovis. The experiment in a line: Antimycobacterial activity against Mycobacterium bovis BCG assessed as reduction in bacterial colony forming units at 20 times MIC concentration measured after 21 days by time kill assay. The experiment is classed as functional. The following applies: time 21 day.
The test system is the same in experiment [2]. The experiment can be described thus: Antimycobacterial activity against Mycobacterium bovis BCG assessed as inhibition of bacterial growth incubated for 7 days by microplate alamar blue assay. The following applies: 168 h, time 7 day. The format is functional. For orientation: Resazurin is reduced to fluorescent resorufin, in cell work by metabolically active cells.

For experiment [3] the test system is unchanged. The experiment in a line: Antimycobacterial activity against Mycobacterium bovis BCG overexpressing DprE1 assessed as inhibition of bacterial growth incubated for 7 days by microplate alamar blue assay. To be noted: 168 h, time 7 day. The experiment is classed as functional.
Experiment [4] has the same test system. The experiment in a line: Antimycobacterial activity against Mycobacterium bovis BCG assessed as reduction in bacterial colony forming units at 20 times MIC concentration measured after 7 days by time kill assay. The following applies: time 7.0 day. The experiment is classed as functional, organism-based.
Experiment [5] has the same test system. The experiment in a line: Antimycobacterial activity against Mycobacterium bovis BCG overexpressing DprE1 assessed as reduction in bacterial colony forming units at 20 times MIC concentration measured after 21 days by time kill assay. The format is functional, organism-based. To be noted: time 21.0 day.

In brackets after ≈: the same amount, converted by molar mass. Activity calls are given as the source filed them. The rule behind the calls is not given here.

For orientation: MIC means the lowest concentration that inhibits growth of the organism. Consider `CO[C@H]1/C=C/O[C@@]2(C)Oc3c(C)c(O)c4c(O)c(c(/C=N/N5CCN(C)CC5)c(O)c4c3C2=O)NC(=O)/C(C)=C\C=C\[C@H](C)[C@H](O)[C@@H](C)[C@@H](O)[C@@H](C)[C@H](OC(C)=O)[C@@H]1C` [RIFAMPIN], for which, in experiment [1], the Activity turned out to be 3 log10CFU/ml. The MIC in experiment [2] and in experiment [3] was 0.35 µM (≈ 0.288 µg/mL) in each case.

As to `O=C(NC(=O)c1ccsc1NC(=O)c1nc2ccccc2s1)OCC1CCC1`, the MIC is 12 µM (≈ 4.99 µg/mL) in experiment [2] and 30 µM (≈ 12.5 µg/mL) in experiment [3].

As to `CCOC(=O)NC(=O)c1ccsc1NC(=O)c1nc2ccccc2s1`, the Activity in experiment [1] amounted to 3 log10CFU/ml. Moreover, the minimal inhibitory concentration (MIC) in experiment [2] is 13.3 µM (≈ 4.99 µg/mL); in experiment [3] it was 66.5 µM (≈ 25 µg/mL).

As for `O=C(NC(=O)c1ccsc1NC(=O)c1nc2ccccc2s1)OCC1CC1`, the outcome in experiment [4] and in experiment [5] was Active. The Activity in experiment [1] was 3 log10CFU/ml. The values for the MIC in experiment [2] and in experiment [3] were 3.11 µM (≈ 1.25 µg/mL) and 12.4 µM (≈ 4.99 µg/mL), respectively.
